Reference: ChEMBL document CHEMBL4665700, “Cytotoxic Bufadienolides from the Leaves of Melianthus major” (J Nat Prod, 2020)
The source made the active and inactive calls. The rule behind the calls is not given here.

Assays:
Assay type in all cases: functional
CCRF-CEM [1] = test: Cytotoxicity against human CCRF-CEM cells assessed as reduction in cell viability after 72 hrs by resazurin dye-based fluorescence assay
ADR5000 cell line [2] = test: Cytotoxicity against human CEM/ADR5000 cells assessed as reduction in cell viability after 72 hrs by resazurin dye-based fluorescence assay; settings: ADR5000, 72 h
MCF7 [3] = test: Cytotoxicity against human MCF7 cells assessed as reduction in cell viability after 72 hrs by resazurin dye-based fluorescence assay; settings: MCF7, 72 h
ADR5000 cell line [4] = test: Cytotoxicity against human CEM/ADR5000 cells assessed as reduction in cell viability at 10 uM after 72 hrs by resazurin dye-based fluorescence assay
CCRF-CEM [5] = test: Cytotoxicity against human CCRF-CEM cells assessed as reduction in cell viability at 10 uM after 72 hrs by resazurin dye-based fluorescence assay
MCF7 [6] = test: Cytotoxicity against human MCF7 cells assessed as reduction in cell viability at 10 uM after 72 hrs by resazurin dye-based fluorescence assay

| SMILES | IC50 (CCRF-CEM [1]) | IC50 (ADR5000 cell line [2]) | IC50 (MCF7 [3]) | Activity (ADR5000 cell line [4]) | Activity (CCRF-CEM [5]) | Activity (MCF7 [6]) |
| --- | --- | --- | --- | --- | --- | --- |
| C[C@@]12O[C@H]3C[C@@H](O1)[C@]1(C=O)[C@H]4CC[C@@]5(C)[C@@H]([C@@H]4CC[C@@]1(C3)O2)[C@@H]1O[C@@H]1[C@@H]5c1ccc(=O)oc1 | 1600 nM | 1600 nM | 4500 nM | – | – | – |
| CC(=O)OC[C@]12[C@@H]3OC4(C)O[C@H](C[C@]1(CC[C@@H]1[C@@H]2CC[C@]2(C)[C@@H](c5ccc(=O)oc5)[C@H]5O[C@H]5[C@]12O)O4)[C@H]3OC(C)=O | – | – | – | inactive | inactive | inactive |
| CC(=O)OC[C@]12[C@@H]3OC4(C)O[C@H](C[C@]1(CC[C@@H]1[C@@H]2CC[C@]2(C)[C@@H](c5ccc(=O)oc5)CC[C@]12O)O4)[C@H]3O | – | – | – | inactive | inactive | inactive |
| CC(=O)O[C@H]1[C@H]2O[C@@]3(C)O[C@@H]1C[C@]1(CC[C@H]4[C@H]5[C@@H]6O[C@@H]6[C@H](c6ccc(=O)oc6)[C@@]5(C)CC[C@@H]4[C@@]21C=O)O3 | 1600 nM | 1800 nM | 4300 nM | – | – | – |
| COc1cccc2c1C(=O)c1c(O)c3c(c(O)c1C2=O)C[C@@](O)(C(=O)CO)C[C@@H]3O[C@H]1C[C@H](N)[C@H](O)[C@H](C)O1 [DOXORUBICIN] | 20 nM | – | 180 nM | – | – | – |
| C[C@@]12O[C@H]3C[C@@H](O1)[C@]1(C=O)[C@H]4CC[C@]5(C)[C@@H](c6ccc(=O)oc6)[C@@H](O)C[C@]5(O)[C@@H]4CC[C@@]1(C3)O2 | 600 nM | 800 nM | 3100 nM | – | – | – |
| CC(=O)OC[C@]12[C@H]3C[C@H]4C[C@]1(CC[C@@H]1[C@@H]2CC[C@]2(C)[C@@H](c5ccc(=O)oc5)CC[C@]12O)OC(C)(O4)O3 | – | – | – | inactive | inactive | inactive |
| C[C@@]12O[C@H]3C[C@@H](O1)[C@]1(C=O)[C@H]4CC[C@]5(C)[C@@H](c6ccc(=O)oc6)CC[C@]5(O)[C@@H]4CC[C@@]1(C3)O2 | 200 nM | 200 nM | 1000 nM | – | – | – |
| CC(=O)O[C@H]1C[C@]2(C=O)[C@H]3CC[C@]4(C)[C@@H](c5ccc(=O)oc5)CC[C@]4(O)[C@@H]3CC[C@]2(O)C[C@H]1OC(C)=O | 500 nM | 500 nM | 3500 nM | – | – | – |
| CC(=O)O[C@H]1C[C@]2(C=O)[C@H]3CC[C@]4(C)[C@@H](c5ccc(=O)oc5)CC[C@]4(O)[C@@H]3CC[C@]2(OC(C)=O)C[C@H]1OC(C)=O | 100 nM | 100 nM | 300 nM | – | – | – |
